How the values were obtained:
HCV Replicon 1b = assay: HCV inhibition assay, HCV replicon 1b (Clone A or ET-lunet cells; RT-PCR or luciferase reporter); assay type: cell-based; conditions: Hepatitis C virus, 96 h, HCV replicon 1b; 4 days incubation; read-out: Replicon 1b potency EC90
Method in brief: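 Inhibition read either as luciferase signal (ET replicon) or as HCV 5′-NTR RNA by RT-PCR relative to rRNA, % = (1−2^−ΔΔCt)×100, against DMSO controls, giving EC50 and EC90. Cells: Clone A or ET-lunet, seeded 1500 or 3000/well, exposed 4 days at 37 °C, 5% CO2, 0.5% DMSO.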

[1] = Cell cytotoxicity assay (MTS), CC90 as reported in Table 1, cell line not stated; assay type: cell-based; conditions: human; MTS assay; 8 days incubation; cell line not given
Method in brief: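 MTS read-out (490 nm, 2 h dye step) after 8-day exposure at 37° C. Huh7, HepG2, BxPC3 were seeded at 2×10^3 and CEM at 5×10^3 cells/well, with compound serially diluted from 100 μM. CC90 comes from comparison with untreated control wells.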

| Structure (SMILES) | EC90 (HCV Replicon 1b) [nM] | CC90 at 8 days [1] [nM] |
| --- | --- | --- |
| CC(C)C[C@H]1C(=O)N[C@@H](c2cccs2)CN1C(=O)/C=C/c1ccc(F)cc1F [Compound 434, (3S,6R)-4-((E)-3-(2,4-difluorophenyl)acryloyl)-3-isobutyl-6-(thiophen-2-yl)pipera-zin-2-one] | 48 | > 10000 |
| CC(C)C[C@H]1C(=O)N[C@@H](c2cccs2)CN1Cc1cc(-c2ccc(F)cc2)on1 [Compound 435, (3S,6R)-4-((5-(4-fluorophenyl)isoxazol-3-yl)methyl)-3-isobutyl-6-(thiophen-2-yl)piperazin-2-one] | 260 | > 10000 |
| Cc1ccsc1[C@H]1CN(C(=O)[C@@H]2C[C@H]2c2ccc(F)cc2)[C@@H](CC(C)C)C(=O)N1 [Compound 438, (3S,6R)-4-((1R,2R)-2-(4-fluorophenyl)cyclopropanecarbonyl)-3-isobutyl-6-(3-methylthiophen-2-yl)piperazin-2-one] | > 10000 | > 10000 |
| Cc1ccsc1[C@H]1CN(C(=O)c2noc(-c3ccc(F)cc3)n2)[C@@H](CC(C)C)C(=O)N1 [Compound 441, (3S,6R)-4-(5-(4-fluorophenyl)-1,2,4-oxadiazole-3-carbonyl)-3-isobutyl-6-(3-methylthiophen-2-yl)piperazin-2-one] | > 10000 | > 10000 |
| CC(C)C[C@H]1C(=O)N[C@@H](C2CCC2)CN1C(=O)c1cc(-c2ccc(F)cc2)on1 [Compound 443, (3S,6S)-6-cyclobutyl-4-(5-(4-fluorophenyl)isoxazole-3-carbonyl)-3-isobutylpiperazin-2-one] | 740 | > 10000 |
| C/C=C/[C@H]1CN(C(=O)c2cc(-c3ccc(F)cc3)no2)[C@@H](CC(C)C)C(=O)N1 [Compound 447, (3S,6S)-4-(3-(4-fluorophenyl)isoxazole-5-carbonyl)-3-isobutyl-6-((E)-prop-1-en-1-yl)piperazin-2-one] | 140 | > 10000 |
| C/C=C/[C@H]1CN(C(=O)c2noc(-c3ccc(F)cc3)n2)[C@@H](CC(C)C)C(=O)N1 [Compound 448, (3S,6S)-4-(5-(4-fluorophenyl)-1,2,4-oxadiazole-3-carbonyl)-3-isobutyl-6-((E)-prop-1-en-1-yl)piperazin-2-one] | 110 | > 10000 |
| C/C=C/[C@H]1CN(C(=O)/C=C/c2ccc(F)cc2F)[C@@H](CC(C)C)C(=O)N1 [Compound 449, (3S,6S)-4-((E)-3-(2,4-difluorophenyl)acryloyl)-3-isobutyl-6-((E)-prop-1-en-1-yl)piperazin-2-one] | 1190 | > 10000 |
| CC(C)C[C@H]1C(=O)N[C@@H](c2ccsc2)CN1C(=O)c1cc(-c2ccc(F)cc2)no1 [Compound 450, (3S,6S)-4-(3-(4-fluorophenyl)isoxazole-5-carbonyl)-3-isobutyl-6-(thiophen-3-yl)piperazin-2-one] | 59 | > 10000 |
| CC(C)C[C@H]1C(=O)N[C@@H](c2ccsc2)CN1C(=O)/C=C/c1ccc(F)cc1F [Compound 451, (3S,6S)-4-((E)-3-(2,4-difluorophenyl)acryloyl)-3-isobutyl-6-(thiophen-3-yl)piperazin-2-one] | 125 | > 10000 |
| C/C=C/[C@H]1CN(C(=O)[C@@H]2C[C@H]2c2ccc(F)cc2)[C@@H](CC(C)C)C(=O)N1 [Compound 452, (3S,6S)-4-((1R,2R)-2-(4-fluorophenyl)cyclopropanecarbonyl)-3-isobutyl-6-((E)-prop-1-en-1-yl)piperazin-2-one] | 48 | > 10000 |
| Cc1ccc([C@H]2CN(C(=O)c3cc(-c4ccc(F)cc4)on3)[C@@H](CC(C)C)C(=O)N2)s1 [Compound 453, (3S,6R)-4-(5-(4-fluorophenyl)isoxazole-3-carbonyl)-3-isobutyl-6-(5-methylthiophen-2-yl)piperazin-2-one] | 680 | > 10000 |
| CC(C)C[C@H]1C(=O)NC(C2CCOCC2)CN1C(=O)c1cc(-c2ccc(F)cc2)on1 (stereo partly drawn) [Compound 456, (3S)-4-(5-(4-fluorophenyl)isoxazole-3-carbonyl)-3-isobutyl-6-(tetrahydro-2H-pyran-4-yl)piperazin-2-one] | 194 | > 10000 |
| CSC[C@H]1C(=O)N[C@@H](c2ccccc2)CN1C(=O)[C@@H]1C[C@H]1c1ccc(F)cc1 [Compound 460, (3R,6S)-4-((1R,2R)-2-(4-fluorophenyl)cyclopropanecarbonyl)-3-((methylthio)-methyl)-6-phenylpiperazin-2-one] | 1160 | > 10000 |
| C=CC[C@H]1C(=O)N[C@@H](c2ccccc2)CN1C(=O)[C@@H]1C[C@H]1c1ccc(F)cc1 [Compound 462, (3S,6S)-3-allyl-4-((1R,2R)-2-(4-fluorophenyl)cyclopropanecarbonyl)-6-phenyl-piperazin-2-one] | 1520 | > 10000 |
| CC(C)C[C@H]1C(=O)N[C@@H](C2CCC2)CN1C(=O)[C@@H]1C[C@H]1c1ccc(F)cc1 [Compound 464, (3S,6S)-6-cyclobutyl-4-((1R,2R)-2-(4-fluorophenyl)cyclopropanecarbonyl)-3-isobutylpiperazin-2-one] | 830 | > 10000 |
| C=CC[C@H]1C(=O)N[C@@H](c2ccccc2)CN1C(=O)c1noc(-c2ccc(F)cc2)n1 [Compound 465, (3S,6S)-3-allyl-4-(5-(4-fluorophenyl)-1,2,4-oxadiazole-3-carbonyl)-6-phenyl-piperazin-2-one] | 290 | > 10000 |
| CSC[C@H]1C(=O)N[C@@H](c2ccccc2)CN1C(=O)c1noc(-c2ccc(F)cc2)n1 [Compound 466, (3R,6S)-4-(5-(4-fluorophenyl)-1,2,4-oxadiazole-3-carbonyl)-3-((methylthio)methyl)-6-phenylpiperazin-2-one] | 650 | > 10000 |
| CC(C)C[C@H]1C(=O)N[C@@H](C2CCC2)CN1C(=O)c1noc(-c2ccc(F)cc2)n1 [Compound 467, (3S,6S)-6-cyclobutyl-4-(5-(4-fluorophenyl)-1,2,4-oxadiazole-3-carbonyl)-3-isobutylpiperazin-2-one] | 250 | > 10000 |
| CSC[C@H]1C(=O)N[C@@H](c2ccccc2)CN1C(=O)c1cc(-c2ccc(F)cc2)on1 [Compound 468, (3R,6S)-4-(5-(4-fluorophenyl)isoxazole-3-carbonyl)-3-((methylthio)methyl)-6-phenylpiperazin-2-one] | 690 | > 10000 |
| O=C1N[C@@H](c2ccccc2)CN(C(=O)[C@@H]2C[C@H]2c2ccc(F)cc2)[C@H]1c1cccs1 [Compound 469, (3R,6S)-4-((1R,2R)-2-(4-fluorophenyl)cyclopropanecarbonyl)-6-phenyl-3-(thiophen-2-yl)piperazin-2-one] | 1060 | > 10000 |
| O=C1N[C@@H](c2ccccc2)CN(C(=O)c2cc(-c3ccc(F)cc3)on2)[C@H]1c1cccs1 [Compound 471, (3R,6S)-4-(5-(4-fluorophenyl)isoxazole-3-carbonyl)-6-phenyl-3-(thiophen-2-yl)piperazin-2-one] | 570 | > 10000 |
| O=C1N[C@@H](c2ccccc2)CN(C(=O)c2noc(-c3ccc(F)cc3)n2)[C@H]1c1cccs1 [Compound 472, (3R,6S)-4-(5-(4-fluorophenyl)-1,2,4-oxadiazole-3-carbonyl)-6-phenyl-3-(thiophen-2-yl)piperazin-2-one] | 1200 | > 10000 |
| CC(C)C[C@H]1C(=O)N[C@H](C2CCOCC2)CN1C(=O)c1noc(-c2ccc(F)cc2)n1 [Compound 473, (3S,6R)-4-(5-(4-fluorophenyl)-1,2,4-oxadiazole-3-carbonyl)-3-isobutyl-6-(tetrahydro-2H-pyran-4-yl)piperazin-2-one] | > 10000 | > 10000 |
| CC(C)C[C@H]1C(=O)N[C@@H](C2CCOCC2)CN1C(=O)c1noc(-c2ccc(F)cc2)n1 [Compound 474, (3S,6S)-4-(5-(4-fluorophenyl)-1,2,4-oxadiazole-3-carbonyl)-3-isobutyl-6-(tetrahydro-2H-pyran-4-yl)piperazin-2-one] | 350 | > 10000 |
| CC(C)C[C@H]1C(=O)N[C@H](C2CCOCC2)CN1C(=O)[C@@H]1C[C@H]1c1ccc(F)cc1 [Compound 475, (3S,6R)-4-((1R,2R)-2-(4-fluorophenyl)cyclopropanecarbonyl)-3-isobutyl-6-(tetrahy-dro-2H-pyran-4-yl)piperazin-2-one] | > 10000 | > 10000 |
| CC(C)C[C@H]1C(=O)N[C@@H](C2CCOCC2)CN1C(=O)[C@@H]1C[C@H]1c1ccc(F)cc1 [Compound 476, (3S,6S)-4-((1R,2R)-2-(4-fluoro-phenyl)cyclopropanecarbonyl)-3-isobutyl-6-(tetrahydro-2H-pyran-4-yl)piperazin-2-one] | 230 | > 10000 |
| CC(C)C[C@H]1C(=O)N[C@H](c2ccco2)CN1C(=O)c1cc(-c2ccc(F)cc2)on1 [Compound 483, (3S,6S)-4-(5-(4-fluorophenyl)isoxazole-3-carbonyl)-6-(furan-2-yl)-3-isobutyl-piperazin-2-one] | > 10000 | > 10000 |
| CC(C)C[C@H]1C(=O)N[C@@H](c2ccco2)CN1C(=O)c1cc(-c2ccc(F)cc2)on1 [Compound 484, (3S,6R)-4-(5-(4-fluorophenyl)isoxazole-3-carbonyl)-6-(furan-2-yl)-3-isobutylpiperazin-2-one] | 180 | > 10000 |

— patent US20120202794A1 (priority 2011, published 2012)
